Assay results from ChEMBL document CHEMBL5465560, “Selectivity Literature for EUbOPEN Chemogenomic Library” (2024).

Tests used:
[1] = target: Histone-lysine N-methyltransferase, H3 lysine-36 specific (Homo sapiens) (UniProt Q96L73); assay: Selectivity interaction (Methyltransferase screen (radiometric assays, panel of 8 PRMTs, 21 protein lysine methyltransferases, 3 DNA methyltransferases, and one RNA methyltransferase)) EUB0000272b NSD1; details: at 10 µM
[2] = target: Aurora kinase B (Homo sapiens, UniProt Q96GD4); assay: Selectivity interaction (ActivX KiNativ screen (kinase selectivity in THP-1 cell lysates)) EUB0000639a AURKB; format: subcellular; details: lysate, at 1 µM
Aurora kinase B, sequence (Q96GD4 whole entry): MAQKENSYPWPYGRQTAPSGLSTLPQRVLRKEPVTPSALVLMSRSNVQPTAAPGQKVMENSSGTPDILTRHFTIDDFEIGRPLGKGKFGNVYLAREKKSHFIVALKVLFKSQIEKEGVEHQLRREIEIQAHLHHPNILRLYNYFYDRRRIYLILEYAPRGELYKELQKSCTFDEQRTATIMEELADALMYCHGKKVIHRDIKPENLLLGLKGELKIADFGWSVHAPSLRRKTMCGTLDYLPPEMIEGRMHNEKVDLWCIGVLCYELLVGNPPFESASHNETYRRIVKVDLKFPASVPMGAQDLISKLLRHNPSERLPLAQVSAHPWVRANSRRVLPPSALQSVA

[3] = target: T1, Serine/threonine-protein kinase DCLK2 (Homo sapiens) (UniProt Q8N568); details: at 10 µM
T1 sequence (whole entry): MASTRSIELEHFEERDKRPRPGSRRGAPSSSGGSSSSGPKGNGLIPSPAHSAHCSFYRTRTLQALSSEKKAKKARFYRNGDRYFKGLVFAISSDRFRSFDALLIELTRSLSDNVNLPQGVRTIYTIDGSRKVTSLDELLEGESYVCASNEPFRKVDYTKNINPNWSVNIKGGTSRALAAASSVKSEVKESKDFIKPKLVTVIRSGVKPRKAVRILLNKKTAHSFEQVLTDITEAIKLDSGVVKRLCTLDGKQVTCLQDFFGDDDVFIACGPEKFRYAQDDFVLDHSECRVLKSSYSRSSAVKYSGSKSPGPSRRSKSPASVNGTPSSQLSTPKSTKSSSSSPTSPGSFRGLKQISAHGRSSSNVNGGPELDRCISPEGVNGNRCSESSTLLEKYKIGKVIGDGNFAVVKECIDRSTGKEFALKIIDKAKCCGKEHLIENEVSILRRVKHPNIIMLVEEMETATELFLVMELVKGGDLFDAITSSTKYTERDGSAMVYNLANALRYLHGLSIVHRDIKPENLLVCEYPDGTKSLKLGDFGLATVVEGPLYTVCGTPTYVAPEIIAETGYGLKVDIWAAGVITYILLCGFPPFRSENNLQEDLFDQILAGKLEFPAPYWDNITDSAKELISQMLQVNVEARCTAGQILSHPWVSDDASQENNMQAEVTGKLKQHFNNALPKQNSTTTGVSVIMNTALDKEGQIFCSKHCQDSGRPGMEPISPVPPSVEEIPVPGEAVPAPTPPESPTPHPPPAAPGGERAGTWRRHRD

[4] = target: Microtubule-associated serine/threonine-protein kinase 1 (Homo sapiens) (UniProt Q9Y2H9); assay: Selectivity interaction (KinomeScan (DiscoverX)) EUB0001049a MAST1; details: at 1 µM
Microtubule-associated serine/threonine-protein kinase 1 (Homo sapiens), sequence (Q9Y2H9 whole entry, looked up): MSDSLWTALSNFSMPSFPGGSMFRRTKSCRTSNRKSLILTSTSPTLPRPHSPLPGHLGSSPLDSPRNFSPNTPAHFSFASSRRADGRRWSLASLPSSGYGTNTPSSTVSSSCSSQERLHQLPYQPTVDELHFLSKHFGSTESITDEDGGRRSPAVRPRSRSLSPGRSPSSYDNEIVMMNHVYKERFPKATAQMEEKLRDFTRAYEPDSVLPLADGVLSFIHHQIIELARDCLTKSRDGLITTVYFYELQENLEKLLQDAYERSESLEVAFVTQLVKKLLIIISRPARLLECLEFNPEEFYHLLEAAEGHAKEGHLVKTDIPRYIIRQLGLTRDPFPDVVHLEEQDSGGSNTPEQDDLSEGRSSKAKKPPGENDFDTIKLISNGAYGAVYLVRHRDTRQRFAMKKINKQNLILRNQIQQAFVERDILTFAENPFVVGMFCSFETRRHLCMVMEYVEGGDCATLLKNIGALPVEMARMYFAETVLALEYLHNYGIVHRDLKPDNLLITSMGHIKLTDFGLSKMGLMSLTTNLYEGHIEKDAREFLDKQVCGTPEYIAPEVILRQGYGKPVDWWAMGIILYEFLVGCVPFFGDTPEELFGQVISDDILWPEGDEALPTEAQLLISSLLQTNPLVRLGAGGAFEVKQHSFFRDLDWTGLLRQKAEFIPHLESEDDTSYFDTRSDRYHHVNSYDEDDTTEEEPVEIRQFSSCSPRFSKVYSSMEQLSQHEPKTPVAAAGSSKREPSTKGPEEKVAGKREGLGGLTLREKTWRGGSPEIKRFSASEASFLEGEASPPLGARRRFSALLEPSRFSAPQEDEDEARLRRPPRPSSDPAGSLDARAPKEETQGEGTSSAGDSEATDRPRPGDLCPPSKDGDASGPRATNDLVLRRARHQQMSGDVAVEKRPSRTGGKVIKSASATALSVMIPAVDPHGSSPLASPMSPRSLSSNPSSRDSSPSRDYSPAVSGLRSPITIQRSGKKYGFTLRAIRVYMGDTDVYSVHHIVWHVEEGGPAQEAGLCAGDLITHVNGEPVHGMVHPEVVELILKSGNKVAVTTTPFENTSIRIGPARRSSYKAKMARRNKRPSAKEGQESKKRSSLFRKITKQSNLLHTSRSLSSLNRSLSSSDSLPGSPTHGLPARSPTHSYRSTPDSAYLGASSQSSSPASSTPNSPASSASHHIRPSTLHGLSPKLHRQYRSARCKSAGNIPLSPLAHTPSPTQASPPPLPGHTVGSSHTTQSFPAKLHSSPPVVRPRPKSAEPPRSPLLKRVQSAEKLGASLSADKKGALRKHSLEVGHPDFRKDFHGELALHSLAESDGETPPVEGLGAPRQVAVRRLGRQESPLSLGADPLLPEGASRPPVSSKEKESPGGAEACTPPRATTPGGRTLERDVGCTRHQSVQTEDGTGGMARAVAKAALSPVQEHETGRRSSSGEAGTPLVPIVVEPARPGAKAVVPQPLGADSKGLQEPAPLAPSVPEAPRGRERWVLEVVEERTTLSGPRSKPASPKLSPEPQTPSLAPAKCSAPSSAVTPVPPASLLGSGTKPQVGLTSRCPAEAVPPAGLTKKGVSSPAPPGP

[5] = target: Mitogen-activated protein kinase kinase kinase 14 (Homo sapiens) (UniProt Q99558); assay: Selectivity interaction (KinomeScan (DiscoverX)) EUB0001079a MAP3K14; details: at 1 µM
Mitogen-activated protein kinase kinase kinase 14 (Homo sapiens), sequence (Q99558 whole entry, looked up): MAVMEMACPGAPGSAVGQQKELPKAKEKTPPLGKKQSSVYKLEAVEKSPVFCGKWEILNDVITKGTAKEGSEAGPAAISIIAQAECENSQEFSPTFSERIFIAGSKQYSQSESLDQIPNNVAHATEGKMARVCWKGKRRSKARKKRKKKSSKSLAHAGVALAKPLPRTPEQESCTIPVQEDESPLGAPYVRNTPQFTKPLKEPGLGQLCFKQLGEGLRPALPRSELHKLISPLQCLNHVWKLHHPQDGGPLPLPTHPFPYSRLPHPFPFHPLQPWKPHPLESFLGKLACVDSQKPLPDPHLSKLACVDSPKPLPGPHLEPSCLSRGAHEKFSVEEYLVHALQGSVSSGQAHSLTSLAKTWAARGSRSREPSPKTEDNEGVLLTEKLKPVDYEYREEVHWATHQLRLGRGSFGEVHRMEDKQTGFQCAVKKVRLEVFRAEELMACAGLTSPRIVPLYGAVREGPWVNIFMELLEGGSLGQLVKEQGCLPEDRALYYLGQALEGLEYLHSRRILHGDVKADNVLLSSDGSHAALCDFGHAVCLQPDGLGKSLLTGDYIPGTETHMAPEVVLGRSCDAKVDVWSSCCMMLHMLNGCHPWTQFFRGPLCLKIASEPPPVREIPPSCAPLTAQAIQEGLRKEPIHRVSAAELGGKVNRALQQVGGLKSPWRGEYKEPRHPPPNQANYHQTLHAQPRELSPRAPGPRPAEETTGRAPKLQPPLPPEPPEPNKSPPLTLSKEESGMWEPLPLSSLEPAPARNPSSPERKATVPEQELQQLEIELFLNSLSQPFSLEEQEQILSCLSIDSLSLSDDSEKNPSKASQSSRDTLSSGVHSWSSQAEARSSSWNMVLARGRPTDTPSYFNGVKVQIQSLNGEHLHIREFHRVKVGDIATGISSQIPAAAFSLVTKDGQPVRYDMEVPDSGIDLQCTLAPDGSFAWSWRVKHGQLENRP

[6] = target: Fibroblast growth factor receptor 1 (Homo sapiens, UniProt P11362); assay: Selectivity interaction (KinomeScan (DiscoverX)) EUB0001079a FGFR1; details: at 1 µM
[7] = target: Dual specificity tyrosine-phosphorylation-regulated kinase 1A (Homo sapiens, UniProt Q13627); assay: Selectivity interaction (KinomeScan (DiscoverX)) EUB0000229b DYRK1A; details: at 10 µM
[8] = target: T2, cGMP-dependent protein kinase 1 (Homo sapiens) (UniProt Q13976); assay: Selectivity interaction (KinomeScan (DiscoverX)) EUB0000092b PRKG1; details: at 10 µM
T2 sequence (whole entry): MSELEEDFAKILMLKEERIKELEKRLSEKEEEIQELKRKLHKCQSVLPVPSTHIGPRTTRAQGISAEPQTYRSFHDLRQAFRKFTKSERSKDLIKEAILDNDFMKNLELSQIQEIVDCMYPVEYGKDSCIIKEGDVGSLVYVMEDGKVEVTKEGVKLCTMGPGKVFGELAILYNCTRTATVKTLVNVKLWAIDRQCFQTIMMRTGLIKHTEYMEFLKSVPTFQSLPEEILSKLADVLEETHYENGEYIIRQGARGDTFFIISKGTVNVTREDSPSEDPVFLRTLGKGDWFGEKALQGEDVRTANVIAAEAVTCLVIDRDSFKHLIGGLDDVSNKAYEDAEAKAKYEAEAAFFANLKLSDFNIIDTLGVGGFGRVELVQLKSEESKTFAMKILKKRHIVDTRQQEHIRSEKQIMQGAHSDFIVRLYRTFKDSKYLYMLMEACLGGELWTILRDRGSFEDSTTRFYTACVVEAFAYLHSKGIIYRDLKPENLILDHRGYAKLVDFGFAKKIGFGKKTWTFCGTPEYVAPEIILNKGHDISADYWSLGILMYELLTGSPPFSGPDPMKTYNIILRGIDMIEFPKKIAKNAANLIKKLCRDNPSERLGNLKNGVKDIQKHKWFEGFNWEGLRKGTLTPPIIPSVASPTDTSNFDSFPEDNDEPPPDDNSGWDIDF

[9] = test system: Tyrosine-protein kinase ABL1 (Homo sapiens), P00519 [F317L]; details: at 10 µM
Tyrosine-protein kinase ABL1 (Homo sapiens), P00519 [F317L], sequence (P00519 whole entry F317L, canonical isoform): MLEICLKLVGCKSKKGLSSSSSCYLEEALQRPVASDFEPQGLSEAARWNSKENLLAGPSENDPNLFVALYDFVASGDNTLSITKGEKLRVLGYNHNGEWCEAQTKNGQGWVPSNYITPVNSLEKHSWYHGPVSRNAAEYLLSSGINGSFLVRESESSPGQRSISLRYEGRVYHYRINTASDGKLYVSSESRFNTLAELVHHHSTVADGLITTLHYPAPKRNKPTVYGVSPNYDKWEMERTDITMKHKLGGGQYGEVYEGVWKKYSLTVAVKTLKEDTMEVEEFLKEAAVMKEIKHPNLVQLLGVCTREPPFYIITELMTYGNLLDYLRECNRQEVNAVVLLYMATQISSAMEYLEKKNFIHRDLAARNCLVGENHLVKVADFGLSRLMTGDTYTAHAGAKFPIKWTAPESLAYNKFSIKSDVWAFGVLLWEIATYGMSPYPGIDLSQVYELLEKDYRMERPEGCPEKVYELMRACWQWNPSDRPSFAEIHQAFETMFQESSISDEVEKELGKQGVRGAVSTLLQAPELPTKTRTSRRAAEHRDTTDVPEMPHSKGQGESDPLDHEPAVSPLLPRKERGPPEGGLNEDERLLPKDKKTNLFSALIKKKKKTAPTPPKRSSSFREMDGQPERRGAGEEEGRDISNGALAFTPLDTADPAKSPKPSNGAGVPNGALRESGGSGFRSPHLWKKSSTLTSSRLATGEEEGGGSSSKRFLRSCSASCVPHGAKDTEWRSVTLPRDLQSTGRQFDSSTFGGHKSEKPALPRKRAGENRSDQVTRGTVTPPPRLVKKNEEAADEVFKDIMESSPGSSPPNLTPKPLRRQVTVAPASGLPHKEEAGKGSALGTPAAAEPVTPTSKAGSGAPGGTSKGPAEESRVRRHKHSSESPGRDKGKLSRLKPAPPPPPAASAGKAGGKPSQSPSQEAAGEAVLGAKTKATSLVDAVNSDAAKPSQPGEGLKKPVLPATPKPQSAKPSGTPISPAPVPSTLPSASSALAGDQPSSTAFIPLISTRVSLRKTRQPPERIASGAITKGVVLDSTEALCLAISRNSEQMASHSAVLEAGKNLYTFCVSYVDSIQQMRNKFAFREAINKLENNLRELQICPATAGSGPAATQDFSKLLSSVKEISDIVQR

[10] = target: Casein kinase I isoform gamma-1 (Homo sapiens) (UniProt Q9HCP0); details: at 10 µM
Casein kinase I isoform gamma-1 (Homo sapiens), sequence (Q9HCP0 whole entry, looked up, canonical isoform): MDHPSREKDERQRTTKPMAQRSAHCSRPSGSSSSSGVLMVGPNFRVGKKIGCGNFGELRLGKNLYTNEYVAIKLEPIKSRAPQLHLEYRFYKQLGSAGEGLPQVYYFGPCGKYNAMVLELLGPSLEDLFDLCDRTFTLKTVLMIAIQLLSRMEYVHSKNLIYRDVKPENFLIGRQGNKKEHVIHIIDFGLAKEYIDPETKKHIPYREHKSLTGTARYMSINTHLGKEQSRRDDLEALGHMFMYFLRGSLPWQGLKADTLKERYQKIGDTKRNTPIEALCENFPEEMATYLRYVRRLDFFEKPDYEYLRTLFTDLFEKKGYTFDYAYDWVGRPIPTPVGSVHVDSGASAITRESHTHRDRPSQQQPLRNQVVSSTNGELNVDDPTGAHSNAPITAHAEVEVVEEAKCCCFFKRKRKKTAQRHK

[11] = target: T3, Scaffold protein ILK (Homo sapiens) (UniProt Q13418); assay: Selectivity interaction (ActivX KiNativ screen (ex vivo kinase selectivity in human PBMCs)) EUB0001619a ILK; format: cell-based; details: PBMC, at 1 µM
T3 sequence (whole entry): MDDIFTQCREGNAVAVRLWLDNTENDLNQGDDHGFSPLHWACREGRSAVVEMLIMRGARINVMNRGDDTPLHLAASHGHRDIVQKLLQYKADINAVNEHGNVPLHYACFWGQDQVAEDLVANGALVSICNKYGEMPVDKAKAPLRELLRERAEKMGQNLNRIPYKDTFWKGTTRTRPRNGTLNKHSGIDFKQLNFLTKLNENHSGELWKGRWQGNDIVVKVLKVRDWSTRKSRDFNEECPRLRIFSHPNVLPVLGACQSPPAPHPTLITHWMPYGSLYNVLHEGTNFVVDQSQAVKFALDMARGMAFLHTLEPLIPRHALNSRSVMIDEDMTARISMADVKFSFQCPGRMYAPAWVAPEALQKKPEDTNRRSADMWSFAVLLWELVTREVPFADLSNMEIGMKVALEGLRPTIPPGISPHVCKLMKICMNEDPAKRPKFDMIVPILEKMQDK

Work on Cc1cc(C)cc([C@H]2c3cc(C)ccc3NC(=O)CN2C(=O)c2ccc(Br)s2)c1 yielded a % of activity [1] of 104%.
CC[C@@H]1[C@H](F)C(=O)N[C@@H]1COc1nccc2cc(C(N)=O)c(OC)cc12 [ZIMLOVISERTIB] was tested, and the % of inhibition [2] was 20%.
With COCC(=O)NC/C=C/c1ccc2ncnc(Nc3ccc(Oc4ccc(C)nc4)c(C)c3)c2c1 [CP-724714] the % of control [3] was 100%.
With COc1cc(Nc2nc(C)cc(-c3cnn4nc(OC)ccc34)n2)cc(C(F)(F)F)c1 the % of control [4] was 100%.
Nc1cnc(N2CCc3cc(S(=O)(=O)Nc4c(F)cc(Cl)cc4F)cc(N4CCCC4=O)c32)nc1 [TP-020n] showed a % of control [5] of 75% and a % of control [6] of 88%.
COc1cc(N(C)c2ccnc3ccc(C(F)(F)F)cc23)cc(OC)c1OC was tested, and the % binding [7] was 65%.
In the case of CCC(=O)N1CCN(c2ccc(-n3c(=O)ccc4cnc5ccc(-c6cnc7ccccc7c6)cc5c43)cc2C(F)(F)F)CC1, the % of control [8] is reported as 86%.
Work on Cc1cc([C@@H](C)Nc2ccccc2C(=O)O)c2nc(N3CCOCC3)cc(=O)n2c1 [AZD-6482] yielded a % of control [9] of 89% and a % of control [10] of 68%.
N#Cc1cccc(-c2c[nH]c3ncnc(N4CCOCC4)c23)c1 showed a % of inhibition [11] of -32%.
